Source: patent publication US10329542B2, “HBV RNAse H purification and enzyme inhibitors” (Saint Louis University, priority 2012, dated 2019)

Legend:
HBV = HBV genomic replication assays (Table 2); format: cell-based, Hepatitis B virus; settings: class by active concentration
Description: Huh7 cells were maintained in Dulbecco's modified Eagle's medium with 10% fetal bovine serum at 37° C. in 5% CO2. Cells were seeded into 60 mm dishes and transfected at 70% confluency with 2.6 μg of plasmids using TransIT-LT1 (Mirus, Inc.). Test compounds were added the morning following transfection at 10 or 50 μM, and fresh medium containing the compounds was provided every 1-2 days. Four or five days post-transfection HBV cores were isolated by lysis of the cells in 10 mM Tris pH 7.5, 1 mM EDTA, 0.25% NP40, 50 mM NaCl, and 8% sucrose followed by sedimentation through a 30% sucrose cushion as described (Travis, et al., 1998). Viral DNAs were isolated from cytoplasmic core particle preparations by proteinase K digestion followed by phenol/chloroform extraction as described (Gong et al., 2001). Duplicate aliquots of the nucleic acids were treated with 2 U E. coli DNAse-free RNAseH (Invitrogen) at 37° C. for 30 min. or were mock treated. The nucleic acid samples were resolved by electrophoresis on 1.2% agarose gels and detected by Southern blotting with ^32P-labeled HBV DNA as a probe. […]

[1] = target: T1, HBV genotype D RNAseH (HRHPL) (Hepatitis B virus genotype D subtype ayw, UniProt P03156, INS679M); assay: Oligonucleotide-directed RNAseH cleavage assay, HBV genotype D; format: biochemical; settings: for Residual activity at 10 uM, Genotype D: ± standard deviation, 3 to 7 replicates; for Activity vs. HBV Biochemical vs. gtD: class by concentration giving inhibition (10, 20, 60 μM)
T1 construct: HRHPL contains HBV genotype D (Genbank V01460) polymerase residues 684-845; made in house; host or cells: E. coli BL21 codon+
Description: (§1) For the oligonucleotide-directed RNAseH cleavage assay (Gong et al., 2001), 6 μl protein extract (typical protein concentration 2.8 mg/ml) was mixed with 0.5 μg internally ^32P-labeled DRF+ RNA (nucleotides 2401-2605 of the duck HBV genome plus 60 nucleotides of flanking sequences from pBluescript) and 3 μg oligonucleotide D2507- or its corresponding negative control D2526+ on ice in 20 μl under the conditions in Table 1. Some reactions in FIG. 5 employed oligonucleotide D2543M-Sal or its D2453+ negative control as indicated. The reactions were incubated at 42° C. for 90 min. and terminated by addition of Laemmli protein loading buffer and boiling. The samples were resolved by 12% SDS-PAGE, the gels were stained with Coomassie blue to monitor protein loading, and labeled RNA was detected by autoradiography. Candidate inhibitors were dissolved in DMSO and added at the indicated concentrations during assembly of the reactions. Control reactions lacking the compounds contained DMSO as a vehicle control. The RNAseH autoradiograms were scanned and quantified with ImageJ.
(§2) Oligonucleotide-directed RNAseH cleavage assays (Gong et al., 2001) were performed as described (Tavis et al., 2013). Briefly, HBV RNAseH extracts were mixed with a 264 nt-long internally ^32P-labeled RNA plus an excess of a complementary DNA oligonucleotide or its inverse-complement as a negative control in a final concentration of 65 mM Tris pH 8.0, 190 mM NaCl, 5 mM MgCl2, 5 mM dTT, 0.05% NP40, and 6% glycerol. βTJ was dissolved in DMSO and added at the indicated concentrations; the final concentration of DMSO in all reactions was 1%. The reactions were incubated at 42° C. for 90 min. and terminated by addition of Laemmli protein electrophoresis buffer. The samples were resolved by SDS-PAGE, labeled RNA was detected by autoradiography, the autoradiograms were scanned, and the RNA cleavage products were quantified with ImageJ (National Institutes of Health). IC50 values were calculated by non-linear regression using GraphPad Prism (GraphPad Software, Inc.).

[2] = target: T2, chimeric HBV:HIV RNAseH HHC1 (Hepatitis B virus genotype D subtype ayw, UniProt P03156, DELINS787-795[…]/INS679M); assay: Oligonucleotide-directed RNAseH cleavage assay, chimeric HHC1; format: biochemical; settings: 10 μM; ± standard deviation, 3 to 7 replicates
T2 construct: HHC1 is an HRHPL derivative; made in house; host or cells: E. coli BL21 codon+
Description: pCMV-HBV-LE-(CMV-HBV) is an HBV over-length genomic expression vector containing 1.2 copies of the HBV(adw2) genome (Genbank X02763.1) downstream of the CMV promoter cloned into pBS (Promega). Surface protein expression from this vector is ablated by mutating the preS and S open reading frames. pCMV-HBV(genotype D) is an analogous HBV genomic expression construct and was a gift from Dr. Shuping Tong (Brown University). For bacterial expression, codon-optimized cDNA sequences for HRHPL (genotypes A, B, C, D, and H), and noncodon-optimized sequences for HHC1 and HHC2 were cloned by gene synthesis (Genscript) between the NcoI and EcoRI sites into pTrcHis2B (Invitrogen) with a C-terminal hexahistidine tag. HRHPL contains HBV genotype D (Genbank V01460) polymerase residues 684-845. HHC1 is an HRHPL derivative in which HBV polymerase residues 800-808 were replaced with HIV residues corresponding to the RNAseH helix D ([…]; SEQ ID NO:6). HHC2 is an HRHPL derivative in which HBV polymerase residues 800-845 were replaced with HIV residues corresponding to the RNAseH helix D to the C-terminus ([…]; SEQ ID NO:7). The human RNAseH1 gene (NP_002927.2) was cloned with an N-terminal hexahistidine-tag between the BamHI and XhoI sites of pRsetB (Invitrogen) by gene synthesis.
as §1, with “ImageJ. The oligonucleotides were: D2526+([…]; SEQ ID NO:8), D2507-([…]; SEQ ID NO:9), D2453+([…]; SEQ ID NO:10), and D2543M-Sal ([…]; SEQ ID NO:11).” for “ImageJ.”

HBV genotype H RNAseH = assay: Oligonucleotide-directed RNAseH cleavage assay, HBV genotype H; format: biochemical, Hepatitis B virus; settings: 10 μM; for Residual activity at 10 uM, Genotype H: ± standard deviation, 3 to 7 replicates
Description: as §1, with “ImageJ. The oligonucleotides were: D2526+([…]; SEQ ID NO:8), D2507-([…]; SEQ ID NO:9), D2453+([…]; SEQ ID NO:10), and D2543M-Sal ([…]; SEQ ID NO:11).” for “ImageJ.”
as §2

human RNAseH1 = target: T3, human RNAseH1 (Homo sapiens, UniProt O60930); assay: Oligonucleotide-directed RNAseH assay, recombinant human RNAseH1; format: biochemical; settings: for Activity vs. human RNAseH1: class by concentration giving inhibition (10, 20, 60 μM)
T3 construct: hexahistidine (N); made in house; host or cells: E. coli BL21 codon+
T3 sequence (O60930 1-286): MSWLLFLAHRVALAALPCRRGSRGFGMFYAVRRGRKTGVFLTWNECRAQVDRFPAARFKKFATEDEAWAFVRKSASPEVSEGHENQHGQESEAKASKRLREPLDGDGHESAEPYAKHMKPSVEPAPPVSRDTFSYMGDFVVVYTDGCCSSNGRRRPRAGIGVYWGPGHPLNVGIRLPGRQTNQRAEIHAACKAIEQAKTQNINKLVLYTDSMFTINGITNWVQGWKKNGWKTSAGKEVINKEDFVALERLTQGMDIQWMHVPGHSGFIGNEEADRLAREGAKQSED
Description: as §1, with “ImageJ. The oligonucleotides were: D2526+([…]; SEQ ID NO:8), D2507-([…]; SEQ ID NO:9), D2453+([…]; SEQ ID NO:10), and D2543M-Sal ([…]; SEQ ID NO:11).” for “ImageJ.”
Therefore, the inventors cloned the human RNAseH1 with an N-terminal hexahistidine tag, expressed it in E. coli, and purified the protein by nickel affinity chromatography. […] This enzyme was active in the oligonucleotide-directed and fluorescent RNAseH assays (FIG. 10B and data not shown). To determine how inhibition of human RNAseH1 compared to inhibition of the HBV RNAseH, the inventor titrated the RNAaseH1 enzyme to yield similar levels of activity as the HBV enzyme, and then the inventor directly compared the ability of compounds #8-12 to inhibit human RNAseH1 and HRHPL at 10 μM. […] Therefore, it is possible to inhibit the HBV RNAseH without inhibiting human RNAseH1.
as §2

T2 sequence (P03156 680-786, added parts left off, stated change not applied): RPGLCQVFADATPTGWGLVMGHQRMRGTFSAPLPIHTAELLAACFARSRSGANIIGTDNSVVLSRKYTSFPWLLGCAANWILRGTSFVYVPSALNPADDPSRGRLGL
T1 sequence (P03156 680-832, added parts left off, stated change not applied): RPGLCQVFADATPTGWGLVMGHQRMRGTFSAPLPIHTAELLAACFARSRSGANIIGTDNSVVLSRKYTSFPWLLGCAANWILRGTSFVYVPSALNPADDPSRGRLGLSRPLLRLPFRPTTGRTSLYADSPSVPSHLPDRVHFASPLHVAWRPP

Compound	Activity vs. HBV Genomic Replication (HBV)	Residual activity at 10 uM, Genotype D [1] [Percent DMSO control]	Activity vs. HBV Biochemical vs. gtD [1]	Residual activity at 10 uM, HHC1 [2] [Percent DMSO control]	Residual activity at 10 uM, Genotype H (HBV genotype H RNAseH) [Percent DMSO control]	Activity vs. human RNAseH1 (human RNAseH1)	Inhibition of human RNAseH1 (human RNAseH1; 10 μM, compared directly with HRHPL)	Inhibition of HBV genotype H RNAseH (HBV genotype H RNAseH; below threshold of irrelevant controls)
CC(Cc1ccc(O)c(O)c1)C(C)Cc1ccc(O)c(O)c1 (centres unmarked) [Compound 2]	− (− no activity at 60 μM)	54 ± 18	− (− no inhibition at 60 μM)	35 ± 6	67 ± 20			
NC(=O)c1c(N)sc2c1CCCCC2 [Compound 3]	− (− no activity at 60 μM)	43 ± 14	− (− no inhibition at 60 μM)	60 ± 19	68 ± 14			
COC(=O)Oc1nsnc1N1CCOCC1 [Compound 4]	− (− no activity at 60 μM)	35 ± 6	+ (+ inhibition at 60 μM)	37 ± 5	68 ± 18			
O=c1c(O)c(-c2ccc(O)c(O)c2)oc2cc(O)c(O)c(O)c12 [Compound 7]	− (− no activity at 60 μM)	45 ± 19	− (− no inhibition at 60 μM)	56 ± 13	68 ± 24	+++ (+++ inhibition at 10 μM)		
O=c1c(O)c(-c2cc(O)c(O)c(O)c2)oc2cc(O)cc(O)c12 [Compound 9]	− (− no activity at 60 μM)	33 ± 10	++ (++ inhibition at 20 μM)	58 ± 15	66 ± 23	++ (++ inhibition at 20 μM)	inhibited it weakly	
COc1ccc2ccccc2c1C=NNC(=O)c1ccc(O)c(O)c1 [Compound 13]	− (− no activity at 60 μM)	52 ± 12	− (− no inhibition at 60 μM)	65 ± 14	42 ± 26			
O=C(O)c1ccc(-c2cccc(C=NNC(=O)c3cc(O)c(O)c(O)c3)c2)cc1 [Compound 15]	− (− no activity at 60 μM)	47 ± 4	− (− no inhibition at 60 μM)	68 ± 6	37 ± 23			
O=c1cc2oc3cc(O)c(O)cc3c(-c3ccccc3)c-2cc1O [Compound 31]	− (− no activity at 60 μM)	26 ± 15	+++ (+++ inhibition at 10 μM)	42 ± 12	50 ± 10	+++ (+++ inhibition at 10 μM)		
CN(C)c1ccc(-c2c3cc(O)c(=O)cc-3oc3cc(O)c(O)cc23)cc1 [Compound 35]	− (− no activity at 60 μM)	27 ± 14	+++ (+++ inhibition at 10 μM)	39 ± 9	38 ± 20	+++ (+++ inhibition at 10 μM)		
Cc1sc2nc(-c3ccc([N+](=O)[O-])cc3)[nH]c(=O)c2c1C [Compound 38]	− (− no activity at 60 μM)	24 ± 1	+++ (+++ inhibition at 10 μM)	32 ± 4	38 ± 25			
O=c1cc2oc3cc(O)c(O)cc3c(-c3ccccn3)c-2cc1O [Compound 39]		21 ± 2		60 ± 24	26 ± 0			inhibited
